Source: PMC6825270 (Proceedings of the National Academy of Sciences of the …, 2019)

Key:
[1] = molecular target: human δ-opioid receptor (hDOPr) (human) (UniProt P41143); experiment: radioligand binding
[2] = molecular target: human κ-opioid receptor (hKOPr) (human) (UniProt P41145); experiment: radioligand binding
human MOPr (hMOPr) = human MOPr (hMOPr) (Homo sapiens, UniProt P35372); experiment: Inhibition of forskolin-stimulated cAMP formation in hMOPr HEK cells; type: cell-based; settings: 10 µM
Sequence of human MOPr (hMOPr) (P35372 whole entry): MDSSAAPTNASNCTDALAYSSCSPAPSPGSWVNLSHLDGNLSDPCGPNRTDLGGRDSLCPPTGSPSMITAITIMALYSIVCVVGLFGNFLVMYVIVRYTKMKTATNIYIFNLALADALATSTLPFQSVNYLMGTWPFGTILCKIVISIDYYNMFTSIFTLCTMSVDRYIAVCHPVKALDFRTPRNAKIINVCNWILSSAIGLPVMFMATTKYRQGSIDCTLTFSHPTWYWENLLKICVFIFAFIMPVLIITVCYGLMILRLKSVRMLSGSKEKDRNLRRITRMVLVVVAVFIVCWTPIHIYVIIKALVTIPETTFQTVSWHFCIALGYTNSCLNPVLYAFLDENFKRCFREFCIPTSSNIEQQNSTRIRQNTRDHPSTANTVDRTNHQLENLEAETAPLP

mouse MOPr (mMOPr) = mouse MOPr (mMOPr) (Mus musculus, UniProt P42866); experiment: GGIRK activation in AtT20 cells expressing mMOPr, perforated patch; type: cell-based
MOPr = MOPr (Mus musculus, UniProt P42866); type: cell-based; settings: GRK2-positive cells, saturating concentrations
[3] = molecular target: human μ-opioid receptor (hMOPr) (human) (UniProt P35372); experiment: radioligand binding

Molecule: bilorphin ([Dmt]vVf-NH2) (peptide)
- Ki [1]: 190 nM
- Ki [2]: 770 nM

Molecule: H-FVvf-NH2 [1g]
- Inhibition of cAMP formation / MOPr activity, in words (human MOPr (hMOPr)): generally inactive

Molecule: H-fvVF-OH [1d]
- Inhibition of cAMP formation / MOPr activity, in words (human MOPr (hMOPr)): generally inactive

Molecule: H-FVvf-OH [1c]
- Inhibition of cAMP formation / MOPr activity, in words (human MOPr (hMOPr)): generally inactive

Molecule: H-fVvF-NH2 [1f]
- Inhibition of cAMP formation / MOPr activity, in words (human MOPr (hMOPr)): generally inactive

Molecule: COc1ccsc1CNCC[C@@]1(c2ccccn2)CCOC2(CCCC2)C1 [oliceridine]
- GGIRK activation in AtT20 cells, in words (mouse MOPr (mMOPr)): significantly less efficaciously than either morphine or bilorphin
- MOPr internalization with overexpressed GRK2-YFP and β-arrestin 2-HA, in words (MOPr): clear internalization signals

Molecule: bilaid C (YvVf-OH) (peptide)
- Ki [3]: 210 nM

Molecule: H-fVvF-OH [1b]
- Inhibition of cAMP formation / MOPr activity, in words (human MOPr (hMOPr)): generally inactive

Molecule: bilaid A (FvVf-OH) (peptide)
- Ki [3]: 3100 nM

B1: C-terminally amidated bilaid A (1e) (peptide)
peptide: FVVF
modifications: D-Val at 2, D-Phe at 4; C-terminal amide
- Ki [3]: 750 nM
